Data published in paper PMC6946680, “Modulation of brain cation-Cl^− cotransport via the SPAK kinase inhibitor ZT-1a” (Nature Communications, 2020).
Several values for one entry are separate records, joined by “and”; a condition that tells them apart may be missing. Identical values can stand only once.

Columns and labels:
Assay type in all cases: cell-based, human
SPAK pSer373 = experiment: Immunoblot of SPAK/OSR1 p-Ser373/Ser325 in HEK-293 cells
Procedure: (§1) Band intensities were quantitated with ImageJ software. ***p < 0.001; **p < 0.01; *p < 0.05; ns, nonsignificant [by one-way ANOVA with post hoc testing (n = 6, error bars represent the mean ± SEM)].
(§2) Thirty-six hours post transfection, cells were stimulated with either control isotonic or hypotonic medium for a period of 30 min. […] Protein concentrations were determined using the Bradford method. Cells were treated with the indicated concentrations of the SPAK/OSR1 inhibitors.

NKCC1 pThr203/207/212 = experiment: Immunoblot of NKCC1 p-Thr203/Thr207/Thr212 in HEK-293 cells
Procedure: as §1, §2

KCC3 pThr991 = experiment: Immunoblot of KCC site 1 phosphorylation (KCC3 Thr991) in HEK-293 cells transfected with FLAG-KCC3
KCC3 pThr1048 = experiment: Immunoblot of KCC site 2 phosphorylation (KCC3 Thr1048) in HEK-293 cells transfected with FLAG-KCC3
[1] = Hypotonic low Cl, compound concentration 1 (unit not given)
[2] = Hypotonic low Cl, compound concentration 3 (unit not given)
[3] = Hypotonic low Cl, compound concentration 10 (unit not given)
[4] = Isotonic control, compound concentration 1 (unit not given)
[5] = Isotonic control, compound concentration 3 (unit not given)
[6] = Isotonic control, compound concentration 10 (unit not given)

Row | SMILES | pSer373 / SPAK (SPAK pSer373; [1]) | pSer373 / SPAK (SPAK pSer373; [2]) | pSer373 / SPAK (SPAK pSer373; [3]) | pSer373 / SPAK (SPAK pSer373; [4]) | pSer373 / SPAK (SPAK pSer373; [5]) | pSer373 / SPAK (SPAK pSer373; [6]) | pThrNKCC1 / NKCC1 (NKCC1 pThr203/207/212; [1]) | pThrNKCC1 / NKCC1 (NKCC1 pThr203/207/212; [2]) | pThrNKCC1 / NKCC1 (NKCC1 pThr203/207/212; [3]) | pThrNKCC1 / NKCC1 (NKCC1 pThr203/207/212; [4]) | pThrNKCC1 / NKCC1 (NKCC1 pThr203/207/212; [6]) | Site-1 phospho / KCC (KCC3 pThr991; [1]) | Site-1 phospho / KCC (KCC3 pThr991; [2]) | Site-1 phospho / KCC (KCC3 pThr991; [3]) | Site-1 phospho / KCC (KCC3 pThr991; [4]) | Site-1 phospho / KCC (KCC3 pThr991; [5]) | Site-1 phospho / KCC (KCC3 pThr991; [6]) | Site-2 phospho / KCC (KCC3 pThr1048; [1]) | Site-2 phospho / KCC (KCC3 pThr1048; [2]) | Site-2 phospho / KCC (KCC3 pThr1048; [3]) | further results
1 | Cc1cc(C(C#N)c2ccc(Cl)cc2)c(Cl)cc1NC(=O)c1ccccc1O (centres unmarked) [ZT-1b] | 0.301 and 0.286 and 0.291 and 0.316 | 0.183 and 0.156 and 0.163 and 0.175 | 0.078 and 0.061 and 0.055 and 0.065 | 0.103 and 0.127 and 0.137 and 0.117 | 0.087 and 0.09 and 0.06 and 0.076 | 0.055 and 0.039 and 0.041 and 0.047 | 0.309 and 0.287 and 0.264 and 0.27 | 0.122 and 0.114 and 0.1313 and 0.117 | 0.011 and 0.0109 and 0.016 and 0.013 | 0.127 and 0.118 and 0.126 and 0.123 | 0.009 and 0.007 and 0.005 and 0.006 | 0.297 and 0.278 and 0.267 and 0.28 | 0.255 and 0.247 and 0.261 and 0.237 | 0.022 and 0.031 and 0.029 and 0.035 | 0.198 and 0.201 and 0.187 and 0.21 | 0.167 and 0.17 and 0.155 and 0.16 | 0.095 and 0.121 and 0.114 and 0.104 | 0.289 and 0.263 and 0.271 and 0.25 | 0.156 and 0.183 and 0.172 and 0.162 | 0.033 and 0.041 and 0.022 and 0.031 | pThrNKCC1 / NKCC1 (NKCC1 pThr203/207/212; [5]): 0.034 and 0.041 and 0.048 and 0.043; Site-2 phospho / KCC (KCC3 pThr1048; [4]): 0.184 and 0.212 and 0.196 and 0.205; Site-2 phospho / KCC (KCC3 pThr1048; [5]): 0.112 and 0.132 and 0.126 and 0.115; Site-2 phospho / KCC (KCC3 pThr1048; [6]): 0.042 and 0.039 and 0.061 and 0.053
2 | Cc1cc(C(C#N)c2ccc(Cl)cc2)c(Cl)cc1NC(=O)c1ccccc1S (centres unmarked) [ZT-1c] | 0.203 and 0.196 and 0.2213 and 0.215 | 0.112 and 0.125 and 0.103 and 0.117 | 0.032 and 0.051 and 0.046 and 0.039 | 0.122 and 0.112 and 0.129 and 0.116 | 0.075 and 0.062 and 0.048 and 0.057 | 0.036 and 0.024 and 0.031 and 0.029 | 1.123 and 1.265 and 1.316 and 1.19 | 0.587 and 0.521 and 0.402 and 0.467 | 0.215 and 0.209 and 0.187 and 0.193 | 0.43 and 0.561 and 0.501 and 0.592 | 0.05 and 0.036 and 0.066 and 0.049 | 1.35 and 1.471 and 1.65 and 1.51 | 1.55 and 1.21 and 1.48 and 1.3 | 1.012 and 0.998 and 0.867 and 0.921 | 1.231 and 1.321 and 1.543 and 1.43 | 1.091 and 0.991 and 0.86 and 0.91 | 0.761 and 0.69 and 0.81 and 0.61 | 0.497 and 0.455 and 0.548 and 0.508 | 0.209 and 0.276 and 0.192 and 0.234 | 0.048 and 0.058 and 0.04 and 0.032 | Site-2 phospho / KCC (KCC3 pThr1048; [4]): 0.476 and 0.401 and 0.516 and 0.551; Site-2 phospho / KCC (KCC3 pThr1048; [5]): 0.214 and 0.265 and 0.187 and 0.198; Site-2 phospho / KCC (KCC3 pThr1048; [6]): 0.065 and 0.051 and 0.044 and 0.058
